According to patent US10244762B1, “Solid aquatic organism control composition and method of use” (priority 2016, dated 2019):

System: Microcystis aeruginosa
Experiment: M. aeruginosa cultures, peroxide held constant with Fe-EDTA and citric acid
Assay type: cell-based
Details: 1.75 ppm H2O2; for In vivo chl a concentrations (± SD) of M. aeruginosa cultures: initial 3.83 ± 0.05 μg/L
Protocol: Tests were conducted similar to Example 1 to show the efficacy of compositions made according to the present disclosure against Microcystis aeruginosa. M. aeruginosa is a species of fresh water bacteria that can form harmful algal blooms.
Peroxide concentrations were held constant at either 0.5 ppm, 1.5 ppm, 1.75 ppm, or 2.0 ppm. Fe-EDTA was applied at 0.3%, 0.6%, or 0.9% based on the original dry formulation. Citric acid was added at 1% based on the original dry formulation.
For instance, Tables 5 and 6 below illustrate the differences when peroxide was applied at 1.75 ppm.

## OO [H2O2, hydrogen peroxide]
Day 1
  In vivo chl a concentrations (± SD) of M. aeruginosa cultures: 2.87 ± 0.74 µg/L
Day 2
  In vivo chl a concentrations (± SD) of M. aeruginosa cultures: 1.72 ± 0.66 µg/L
Day 3
  In vivo chl a concentrations (± SD) of M. aeruginosa cultures: 1.31 ± 0.64 µg/L
Day 4
  In vivo chl a concentrations (± SD) of M. aeruginosa cultures: 1.32 ± 0.63 µg/L
Day 4, initial cell density 2.2E+06 ± 7.2E+04 cells/mL
  Cell density of M. aeruginosa cultures (± SD): 8.0E+04 cells/mL
